What was measured:
[1] = Delivery of phosphotungstic acid into bovine articular cartilage by MHD, imaged with X-ray micro-tomography; type: in vitro ADME; details: PTA 1% in PBS; MHD for 40 s, graphite electrodes ø=6 mm, 3 mm gap, 400 mA; control immersed 40 s without MHD; XMT of 150 μm slices
Source text: Control: bovine articular cartilage was immersed in 1% PTA (˜2.8 kDa) in phosphate buffered saline (PBS) for 40 s.
Treatment: bovine articular cartilage was immersed in PTA 1% in PBS and exposed to MHD for 40 s. The MHD method applied graphite cylindrical electrodes (ø=6 mm), 3 mm electrode gap, and 400 mA.

[2] = In-vitro delivery of methylene blue into human nails by MHD, photograph; type: in vitro ADME; details: MB 0.01% in PBS 1%, MHD for 10 minutes, graphite electrodes ø=6 mm, 3 mm gap, 400 mA, control immersed 10 minutes without MHD
Description: Control: Fingernail was immersed in a solution of MB (0.01%) in PBS (1%) for 10 minutes.
Treatment; Fingernail was immersed in the MB solution and exposed to MHD during 10 minutes. The MHD method applied graphite cylindrical electrodes (ø=6 mm), 3 mm electrode gap, and 400 mA.
The darkest regions correspond to the largest concentration of MB.

Row | Compound | Diffusion of PTA into cartilage, treated sample vs control [1] | Diffusion of MB into nail, treated sample vs control [2]
1 | O=P(O)(O)O.[O]=[W](=[O])=[O].[O]=[W](=[O])=[O].[O]=[W](=[O])=[O].[O]=[W](=[O])=[O].[O]=[W](=[O])=[O].[O]=[W](=[O])=[O].[O]=[W](=[O])=[O].[O]=[W](=[O])=[O].[O]=[W](=[O])=[O].[O]=[W](=[O])=[O].[O]=[W](=[O])=[O].[O]=[W](=[O])=[O] [PTA, phosphotungstic acid] | enhanced diffusion of PTA as compared to the control | –
2 | CN(C)c1ccc2nc3ccc(=[N+](C)C)cc-3sc2c1 [MB, methylene blue] | – | stronger than in the control

Source: patent US11052245B2, “Device and method for localized delivery and extraction of material” (Helsingin Yliopisto, priority 2015, dated 2021)
